Marks after values point to notes of the source that are not given here.
Legend:
[1] = Evaluation of intracerebral transitivity in rat; format: in vivo, SD(IGS) rats; details: for Kp value (ratio of plasma concentration and intracerebral concentration): 30 mg/kg orally
Experimental: The test compound A dissolved in 0.5% aqueous HPMC solution was orally administered at 30 mg/kg, and test compound B and test compound C dissolved in 0.5% aqueous HPMC solution were each orally administered at 3 mg/kg to SD(IGS) rats (Charles River Laboratories Japan). At 1 hr and 4 hr after the administration of the test compound, blood samples were collected, and the brain (cerebral•cerebellum) was isolated. The plasma concentration and intracerebral concentration of each test compound were measured, and the ratio (Kp value) thereof was calculated, based on which the intracerebral transitivity was evaluated.

[2] = system: rat middle cerebral artery occlusion-reperfusion model; assay: Cerebral infarction volume in rat middle cerebral artery occlusion-reperfusion model; format: in vivo, male Wistar rats; details: 10 mg/kg intravenously 30 min after occlusion, reperfusion 90 min after occlusion, brain isolated 24 hr later, TTC stain; FIG. 7
Experimental: The middle cerebral artery of male Wistar rats (Japan Laboratory Animals Inc.) was obstructed with suture (silicon-coated nylon thread), and saline (Vehicle, n=7), test compound A (10 mg/kg, n=6) dissolved in saline, test compound B ([…], n=7) dissolved in saline, and test compound C (10 mg/kg, n=7) dissolved in saline were each intravenously administered in 30 min after occlusion and the artery was reperfused in 90 min after occlusion. The brain was isolated 24 hr later. A 2 mm brain strip was prepared, and the strip was stained with PBS (pH 7.4, 37° C.) containing 1% 2,3,5-triphenyltetrazolium chloride (TTC, Wako Pure Chemical Industries, Ltd.). The cerebral infarction area was measured by image analysis and the cerebral infarction volume was calculated.

MCP-1 [3] = assay: MCP-1 production in LPS-administered mouse; format: in vivo, male BALB/c mouse; details: for MCP-1 production (%): 10 mg/kg orally 30 min before LPS 500 μg/kg i.p., plasma 90 min after LPS, ratio to group without test compound
Experimental: (§1) LPS (lipopolysaccharide, derived from E. coli 0111:B4, Sigma, 500 μg/kg) was intraperitoneally administered to male BALB/c mouse (Charles River Laboratories Japan). After 90 min after LPS administration, the blood was taken under anesthesia, and centrifuged to collect plasma. TNF-α was measured using an Immunoassay Kit (R&D Systems) and IL-10, MCP-1 and IL-6 were measured using an Immunoassay Kit (BIOSOURCE). Test compound A, the compound synthesized in Example 3 (test compound B) and the compound synthesized in Example 7 (test compound C) were dissolved in saline, and the mixture was orally administered at 10 mg/kg 30 min before LPS administration. As shown in the Tables, the effect of each test compound on respective […] cytokines was calculated as the ratio of each cytokine concentration in the blood of the group administered with each test compound to each cytokine concentration in the blood of the group free of administration of each test compound.

IL-6 [4] = assay: Intracerebral IL-6 production in rat middle cerebral artery occlusion-reperfusion model; format: in vivo, male Wistar rats; details: 10 mg/kg intravenously 30 min after occlusion; brain isolated 12 hr after occlusion; ELISA; FIG. 3
Experimental: (§2) The middle cerebral artery of male Wistar rats (Japan Laboratory animals Inc.) was obstructed with suture (silicon-coated nylon thread), and test compound A (10 mg/kg) dissolved in saline was intravenously administered in 30 min after occlusion, and middle cerebral artery was reperfused in 60 min after administration. In only the rats used for TNF-α measurement, test compound A was administered orally. The brain was isolated at 12 hr after the occlusion (see Koizumi, J. et al., Jpn. J. Stroke, 8, 1-8, 1986). The brain tissue was homogenized, the centrifuged supernatant was collected and cytokine and chemokine were measured by ELISA. Intracerebral TNF-α, IL-1β and IL-6 were measured using an Immunoassay Kit (BIOSOURCE) according to the manufactures' protocol. MCP-1 was measured using an MCP-1 Instant ELISA (Bener MedSystems) according to the manufactures' protocol.

IL-1β = assay: Intracerebral IL-1β production in rat middle cerebral artery occlusion-reperfusion model; format: in vivo, male Wistar rats; details: 10 mg/kg intravenously 30 min after occlusion; brain isolated 12 hr after occlusion; ELISA; FIG. 2
Experimental: as §2

IL-10 = IL-10 production in LPS-administered mouse; format: in vivo, male BALB/c mouse
Experimental: as §1

IL-6 [5] = assay: IL-6 production in LPS-administered mouse; format: in vivo, male BALB/c mouse; details: for IL-6 production (%): 10 mg/kg orally 30 min before LPS 500 μg/kg i.p., plasma 90 min after LPS, ratio to group without test compound
Experimental: as §1

TNF-α [6] = assay: TNF-α production in LPS-administered mouse; format: in vivo, male BALB/c mouse
Experimental: as §1

TNF-α [7] = assay: Intracerebral TNF-α production in rat middle cerebral artery occlusion-reperfusion model; format: in vivo, male Wistar rats; details: 10 mg/kg orally 30 min after occlusion; brain isolated 12 hr after occlusion; ELISA; FIG. 1
Experimental: as §2

MCP-1 [8] = assay: Intracerebral MCP-1 production in rat middle cerebral artery occlusion-reperfusion model; format: in vivo, male Wistar rats; details: 10 mg/kg intravenously 30 min after occlusion; brain isolated 12 hr after occlusion; ELISA; FIG. 4
Experimental: as §2

[9] = Evaluation of bioavailability in rat; format: in vivo, male SD(IGS) rats
Experimental: Test compound A, test compound B and test compound C were each dissolved in 0.5% aqueous HPMC (hydroxypropyl methylcellulose) solution in the case of oral administration, or in saline in the case of intravenous administration, and they were orally or intravenously administered to male SD(IGS) rats (Charles River Laboratories Japan) by 3 mg/kg. The concentration of unchanged drug in the plasma of each rat was measured, and bioavailability (F(%)) was calculated (F (%)=(AUC0-∞,p.o./AUC0-∞,i.v.,mean)×(Dosei.v./Dosep.o.)×100). The test compound was administered by gavage using an oral gavage needle (p.o.), or administered in the tail vein (i.v.). The blood samples were collected at 15 and 30 min, 1, 2, 4, 6, 8 and 24 hr after administration in the case of oral administration, and 5 and 30 min, 1, 2, 4, 6, 8 and 24 hr after administration in the case of intravenous administration.
The results are shown in Tables 4 (test compound A), 5 (test compound B) and 6 (test compound C). The Cmax values for i.v. in Tables 4, 5 and 6 show plasma concentration at 5 min after administration.

[10] = 10 mg/kg orally 30 min before LPS
[11] = Table 1, 10 mg/kg orally 30 min before LPS 500 μg/kg i.p., plasma 90 min after LPS, ratio to group without test compound
[12] = 3 mg/kg i.v., plasma, Mean + SD
[13] = 3 mg/kg p.o., plasma, Mean + SD

## CC(=O)NC1(c2ccc(CN3CCN(c4ncccn4)CC3)cc2)CC1.Cl [test compound A, N-(1-(4-((4-(pyrimidin-2-yl)piperazin-1-yl)methyl)phenyl)cyclopropyl)acetamide•hydrochloride]
[1]; 1 hr after administration
  Kp value (ratio of plasma concentration and intracerebral concentration): 0.5
[1]; 4 hr after administration
  Kp value (ratio of plasma concentration and intracerebral concentration): 0.5
[1]; orally, test compound A 30 mg/kg, test compounds B and C 3 mg/kg
  intracerebral transitivity (in words): intracerebrally transferred
[2]
  suppression of cerebral infarction volume: 42.5%
MCP-1 [3]; [10]
  MCP-1 production in LPS model mouse (in words): suppressed
MCP-1 [3]; Table 2
  MCP-1 production (%): 61.7%
MCP-1 [3]; Table 3
  MCP-1 production (%): 72.2%
IL-6 [4]
  intracerebral IL-6 concentration increased by transient cerebral ischemia: suppressed
IL-1β
  intracerebral IL-1β concentration increased by transient cerebral ischemia: suppressed
IL-10; [10]
  IL-10 in LPS model mouse (in words): increased
IL-10; [11]
  IL-10 production (%): 397.1%
IL-6 [5]; [10]
  IL-6 production in LPS model mouse (in words): suppressed
IL-6 [5]; Table 2
  IL-6 production (%): 74.4%
IL-6 [5]; Table 3
  IL-6 production (%): 78.4%
TNF-α [6]; [10]
  TNF-α production in LPS model mouse (in words): suppressed
TNF-α [6]; [11]
  TNF-α production (%): 43.5%
TNF-α [7]
  intracerebral TNF-α concentration increased by transient cerebral ischemia: suppressed
MCP-1 [8]
  intracerebral MCP-1 concentration increased by transient cerebral ischemia: suppressed
[9]; [12]
  AUC0-24 h: 3850 ± 78.4 ngh/mL
  AUC0-∞: 3841.3 ± 77.4 ngh/mL
  Cmax (C5 min, plasma concentration at 5 min after administration): 2219.9 ± 103.8^2) ng/mL
[9]; 3 mg/kg p.o. vs 3 mg/kg i.v., F = (AUC0-∞,p.o./AUC0-∞,i.v.,mean) × (Dosei.v./Dosep.o.) × 100
  F (bioavailability): 104.3%
[9]; [13]
  AUC0-24 h: 4032.9 ± 501.8 ngh/mL
  AUC0-∞: 4008.2 ± 491.5 ngh/mL
  Cmax: 1.4597 µg/mL
